Reference: patent US20030096015A1, “Cytogenic/nucleogenic healing” (priority 1997, published 2003)

System: epithelial cells
Type: cell-based, human

With OC[C@H]1O[C@@](CO)(O[C@H]2O[C@H](CO)[C@@H](O)[C@H](O)[C@H]2O)[C@@H](O)[C@@H]1O [5% Sucrose, sucrose] the “time after which sticky clumps were invaded by fungi and bacteria” value (0.5% solution) was 48 h, the “cell replication / tissue formation observed” value (0.5% solution, isolated epithelial cells, ambient temperature) was “Rapid cell replication was observed in form of sticky clumps with no distinct differentiation into tissue formation” and the “Potential for Tissue Growth” value (ambient temperature (24° C.)) was “sticky lump”.
